Experimental data published in patent US20220175761A1, “BI-LIGAND DRUG CONJUGATE AND USE THEREOF” (COHERENT BIOPHARMA (SUZHOU), LIMITED, priority 2019, published 2022).
pIC50: −log10 of the molar value. Numbered stars: 1 amine (or outer) side, 2 acyl side, 3 side chain; on linkers, the order of the positions; unused ones are H or OH. Bridge positions count the residues as written; N and C are the ends. Square brackets hold non-standard residues; d marks the D form. Peptide text beside a SMILES is read from it. I, II: the chains in the order shown. * marks the point of attachment. ξ: configuration not given here. Exatecan = CC[C@@]1(O)C(=O)OCc2c1cc1n(c2=O)Cc2c-1nc1cc(F)c(C)c3c1c2[C@@H](N*)CC3; Hexanoyl(6-succinimido-3yl) = O=C1CC([*:1])C(=O)N1CCCCCC(=O)[*:2]; EuK = O=C(O)CC[C@H](NC(=O)N[C@@H](CCCCN*)C(=O)O)C(=O)O; Pteroyl = Nc1nc2ncc(CNc3ccc(C(=O)*)cc3)nc2c(=O)[nH]1; Dolaproine = CO[C@@H]([C@@H]1CCCN1)[C@@H](C)C(=O)O; Dil = CC[C@H](C)[C@H](NC)[C@@H](CC(=O)O)OC; X3 = O=C1CC([*:2])C(=O)N1CCCCCC(=O)[*:1]; γGlu = O=C(O)[C@H](CCC(=O)[*:2])N[*:1]; PABC = O=C(OCc1ccc(N[*:1])cc1)[*:2]; NHCH2OCH2CO = O=C(COCN[*:1])[*:2]; X1 = C[C@@H](N*)[C@@H](O)c1ccccc1; X2 = O=C(Cc1ccc(CN[*:1])cc1)[*:2]; NMeV = CN[C@H](C(=O)O)C(C)C; ξCit = NC(=O)NCCCC(N)C(=O)O; CO = O=C([*:1])[*:2]; ξV = CC(C)C(N)C(=O)O; ξC = NC(CS)C(=O)O

Columns and labels:
[1] = test system: lung cancer PDX model LU1206; assay: Effectiveness in lung cancer LU1206 model (PDX model); format: in vivo, BALB/c nude mice
Description: BALB/c nude mice bore tumors subcutaneously and, when the tumor volume reached about 150 mm^3, were grouped into: low-dose, medium-dose and high-dose test sample groups, a small molecule MMAE control group, a targeting polypeptide 20BK-SM09 control group, and a blank control group (a total of 6 groups, and 8 mice per group); the mice were administered on day 1, day 8 and day 15 after the grouping; and the observation was continued for 14 days after the last administration.

[2] = test system: lung cancer PDX model LU2505; assay: Effectiveness in lung cancer LU2505 model (PDX model); format: in vivo, BALB/c nude mice
Text: The active substance of test sample CBP-1018 is CB-20BK, which is obtained by mixing CB-20BK with auxiliary materials and then lyophilizing same.

[3] = molecular target: T1, FOLR1 (Homo sapiens, UniProt P15328); assay: BIAcore T200 binding affinity to FOLR1 (CM5 chip conjugated with FOLR1); details: BIAcore T200
T1 construct: purchased R&D System 5646-FR
Text: Buffer: HBS-EP+ buffer 10× (GE, Cat #: BR100669), diluted 10 folds with deionized water before use.
In the experiment, CM5 chip was conjugated with ligand FOLR1 (R&D System, Cat #: 5646-FR).

[4] = test system: LNCaP (human prostate cancer cells); assay: Inhibition of cell line proliferation, CCK8; format: cell-based; details: LNCaP
Text: (§1) Since different cells have different sensitivity to a cell proliferation inhibitory toxicity of the payload in a ligand conjugate, the quantitative analysis may be interfered occasionally. A series of cell lines with known expression levels of receptors of different ligands were selected and tested for the response to inhibitory effects of the cell proliferation of a ligand conjugate and a single payload. The IC50 ratio of a single payload to that of a ligand conjugate in same cell line were taken to remove such interference.
Experimental operations: LNCaP and 22RV1 cells were prepared in advance, counted, and plated in 96-well cell culture plates at a cell density of 4×10^4 cells/ml and 2.0×10^4 cells/ml, respectively (100 μl/well); negative control and blank control wells were set on each plate. After adherent cell culture overnight, the diluted samples to be tested were added at 50 μl/well. The plates were placed in an incubator at 37° C., 5% CO2 and cultured for 68-72 hours. To each well, 15 μl (10% of the liquid volume in a well) of a color developing solution from CCK8 was added; and the plates were incubated at 37° C. for 45-70 minutes and each plate was read at 450 nm on a microplate reader. The data was edited using SoftMax Pro and a 4-P fitting curve was plotted. […]

[5] = test system: 22RV1 (human prostate cancer cells); assay: Inhibition of cell line proliferation, CCK8; format: cell-based
Text: as §1
(§2) Experimental operations: LNCaP and 22RV1 cells were prepared in advance, counted, and plated in 96-well cell culture plates at a cell density of 4×10^4 cells/ml and 2.0×10^4 cells/ml, respectively (100 μl/well); negative control and blank control wells were set on each plate. After adherent cell culture overnight, the diluted samples to be tested were added at 50 μl/well. The plates were placed in an incubator at 37° C., 5% CO2 and cultured for 68-72 hours. To each well, 15 μl (10% of the liquid volume in a well) of a color developing solution from CCK8 was added; and the plates were incubated at 37° C. for 45-70 minutes and each plate was read at 450 nm on a microplate reader. The data was edited using SoftMax Pro and a 4-P fitting curve was plotted.

[6] = test system: MDA-MB-468 (human breast cancer cells); assay: Inhibition of cell line proliferation, CCK8; format: cell-based; details: MDA-MB-468, 68-72 hours, CCK8
Description: (§3) Experimental Operations: LNCaP, SK-BR-3, MDA-MB-468 and CFPAC-1 cells were prepared in advance and counted; with a culture medium (IMDM+10% FBS+1× L-Glutamine+1×P/S), the cells LNCaP, SK-BR-3, MDA-MB-468 and CFPAC-1 were diluted to 4×10^4 cells/ml; the diluted cell solution was plated in 96-well plates at 100 µl/well; and negative control and blank control wells were set on each plate. After adherent cell culture overnight, the diluted samples to be tested were added at 50 μl/well. The plates were placed in an incubator at 37° C., 5% CO2 and cultured for 68-72 hours. To each well, 15 μl (10% of the liquid volume in a well) of a color developing solution from CCK8 was added; and the plates were incubated at 37° C. for 45-70 minutes and each plate was read at 450 nm on a microplate reader. The data was edited using SoftMax Pro and a 4-P fitting curve was plotted.
as §3, with “Operations: LNCaP, MDA-MB-468, CFPAC-1 and PANC-1” for “Operations: LNCaP, SK-BR-3, MDA-MB-468 and CFPAC-1”, “CFPAC-1 and PANC-1 cells were” for “MDA-MB-468 and CFPAC-1 cells were”, “cells LNCaP, MDA-MB-468 and” for “cells LNCaP, SK-BR-3, MDA-MB-468 and”, “to 4×10^4 cells/ml, and PANC-1 was diluted to 3.0×10^4 cells/ml; the” for “to 4×10^4 cells/ml; the”, “at 100 μl/well; and negative” for “at 100 µl/well; and negative”
(§4) Experimental operations: NCI-H226, CFPAC-1 and MDA-MB-468 cells were prepared in advance and counted; MDA-MB-468 and CFPAC-1 cells were plated at a density of 2×10^4 cells/ml (100 μl/well) and NCI-H226 cells were plated at a density of 1×10^4 cells/ml (100 μl/well) in 96-well plates; and negative control and blank control wells were set on each plate. After adherent cell culture overnight, the diluted samples to be tested were added at 50 μl/well. The plates were placed in an incubator at 37° C., 5% CO2 and cultured for 68-72 hours. To each well, 15 μl (10% of the liquid volume in a well) of a color developing solution from CCK8 was added; and the plates were incubated at 37° C. for 45-70 minutes and each plate was read at 450 nm on a microplate reader. The data was edited using SoftMax Pro and a 4-P fitting curve was plotted.

[7] = test system: NCI-H226 (human lung cancer cells); assay: Inhibition of cell line proliferation, CCK8; format: cell-based; details: NCI-H226, 68-72 hours, CCK8
Description: (§5) Experimental operations: LNCaP, SK-BR-3, NCI-H226, CFPAC-1 and PANC-1 cells were prepared in advance and counted; with a culture medium (IMDM+10% FBS+1× L-Glutamine+1×P/S), the cells LNCaP, SK-BR-3 and CFPAC-1 were diluted to 4×10^4 cells/ml, NCI-H226 was diluted to 2.0×10^4 cells/ml and PANC-1 was diluted to 3.0×10^4 cells/ml; the diluted cell solution was plated in 96-well plates at 100 μl/well; and negative control and blank control wells were set on each plate. After adherent cell culture overnight, the diluted samples to be tested were added at 50 μl/well. The plates were placed in an incubator at 37° C., 5% CO2 and cultured for 68-72 hours. To each well, 15 μl (10% of the liquid volume in a well) of a color developing solution from CCK8 was added; and the plates were incubated at 37° C. for 45-70 minutes and each plate was read at 450 nm on a microplate reader. The data was edited using SoftMax Pro and a 4-P fitting curve was plotted.
as §4

[8] = test system: CFPAC-1 (human pancreatic cancer cells); assay: Inhibition of cell line proliferation, CCK8; format: cell-based; details: CFPAC-1, 68-72 hours, CCK8
Description: as §2, with “PANC-1” for “LNCaP”, “CFPAC-1” for “22RV1”, “cells/ml” for “cells/ml and 2.0×10^4 cells/ml, respectively”
as §5, §3
as §3, with “Operations: LNCaP, MDA-MB-468, CFPAC-1 and PANC-1” for “Operations: LNCaP, SK-BR-3, MDA-MB-468 and CFPAC-1”, “CFPAC-1 and PANC-1 cells were” for “MDA-MB-468 and CFPAC-1 cells were”, “cells LNCaP, MDA-MB-468 and” for “cells LNCaP, SK-BR-3, MDA-MB-468 and”, “to 4×10^4 cells/ml, and PANC-1 was diluted to 3.0×10^4 cells/ml; the” for “to 4×10^4 cells/ml; the”, “at 100 μl/well; and negative” for “at 100 µl/well; and negative”
Experimental operations: NCI-H226, CFPAC-1 and MDA-MB-468 cells were prepared in advance and counted; MDA-MB-468 and CFPAC-1 cells were plated at a density of 2×10^4 cells/ml (100 μl/well) and NCI-H226 cells were plated at a density of 1×10^4 cells/ml (100 μl/well) in 96-well plates; and negative control and blank control wells were set on each plate. After adherent cell culture overnight, the diluted samples to be tested were added at 50 μl/well. The plates were placed in an incubator at 37° C., 5% CO2 and cultured for 68-72 hours. […]

[9] = 10 mg/kg on day 1, 8, 15, euthanized on day 29

T1 sequence (P15328 25-233 limits assumed): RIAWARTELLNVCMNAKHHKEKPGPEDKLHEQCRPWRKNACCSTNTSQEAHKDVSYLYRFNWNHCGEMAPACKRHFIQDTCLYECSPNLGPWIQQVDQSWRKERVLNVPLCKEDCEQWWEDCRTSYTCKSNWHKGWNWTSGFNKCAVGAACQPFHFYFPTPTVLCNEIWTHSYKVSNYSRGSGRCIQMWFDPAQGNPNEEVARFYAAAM

Structure (SMILES): NCCCC[C@H](CC(=O)[C@H](CC(=O)O)NC(=O)[C@H](CC(=O)O)NC(=O)Cc1ccc(CNC(=O)NCCCC[C@H](NC(=O)N[C@@H](CCC(=O)O)C(=O)O)C(=O)O)cc1)C(=O)N[C@@H](CS)C(=O)N[C@@H](CCCCNC(=O)CC[C@H](NC(=O)c1ccc(NCc2cnc3[nH]c(N)nc(=O)c3n2)cc1)C(=O)O)C(N)=O [20BK-SM09]
- tumor growth inhibition effect (in words) ([1]; 10 mg/kg): no obvious tumor growth inhibition effect
- Tumor volume ([1]; 10 mg/kg on day 1, 8, 15): 1158.80 mm^3
- Tumor weight [1, 9]: 914.36 mg
- Tumor weight Inhibition ratio [1, 9]: −6.80%
- tumor growth inhibition effect (in words) ([2]; 10 mg/kg): no obvious tumor growth inhibition effect
- Tumor volume ([2]; 10 mg/kg on day 1, 8, 15, D22): 2024.75 mm^3
- Tumor weight ([2]; 10 mg/kg on day 1, 8, 15, D22): 1811.5 (D22) mg

Structure (SMILES): CC[C@H](C)[C@@H]([C@@H](CC(=O)N1CCC[C@H]1[C@H](OC)[C@@H](C)C(=O)N[C@H](C)[C@@H](O)c1ccccc1)OC)N(C)C(=O)[C@@H](NC(=O)[C@H](C(C)C)N(C)C(=O)OCc1ccc(NC(=O)C(CCCNC(N)=O)NC(=O)[C@@H](NC(=O)CCCCCN2C(=O)CC(SCC(NC(=O)[C@H](CCCCN)NC(=O)[C@H](CC(=O)O)NC(=O)[C@H](CC(=O)O)NC(=O)Cc3ccc(CNC(=O)NCCCC[C@H](NC(=O)N[C@@H](CCC(=O)O)C(=O)O)C(=O)O)cc3)C(N)=O)C2=O)C(C)C)cc1)C(C)C (stereo partly drawn) [CB-20AK, reference compound] (I: V[ξCit][PABC][NMeV]V[Dil][Dolaproine]-X1 / II: {EuK-CO}-[X2]DDK[ξC]-NH2; linker I:N-II:5 via X3)
- specific binding to FOLR1 (in words) [3]: has not been detected to specifically bind to FOLR1
- IC50 ratio (MMAE/conjugate) [4]: 0.025
- pIC50 ([4]; 68-72 hours, CCK8): 6.99
- IC50 ratio (MMAE/conjugate) ([5]; 22RV1): 0.006
- pIC50 ([5]; 22RV1, 68-72 hours, CCK8): 5.98

Structure (SMILES): CC[C@@]1(O)C(=O)OCc2c1cc1n(c2=O)Cc2c-1nc1cc(F)c(C)c3c1c2[C@@H](NC(=O)COCNC(=O)CNC(=O)[C@H](Cc1ccccc1)NC(=O)CNC(=O)CNC(=O)CCCCCN1C(=O)CC(SC[C@H](NC(=O)CC[C@H](NC(=O)c2ccc(NCc4cnc5[nH]c(N)nc(=O)c5n4)cc2)C(=O)O)C(=O)N[C@@H](CCCCN)C(=O)N[C@@H](CCC(=O)O)C(=O)N[C@@H](Cc2ccccc2)C(=O)N[C@@H](CC(C)C)C(=O)N[C@@H](Cc2cnc[nH]2)C(=O)N2CCC[C@H]2C(=O)N[C@@H](CO)C(=O)N[C@@H](CCCCN)C(=O)NC(C(=O)N[C@@H](CC(=O)O)C(=O)N[C@@H](CC(C)C)C(=O)N2CCC[C@H]2C(=O)N[C@@H](CCCNC(=N)N)C(=O)O)C(C)C)C1=O)CC3 (stereo partly drawn) [CR19425] (I: {Pteroyl-γGlu}-CKEFLHPSK[ξV]DLPR-OH / II: GGFG[NHCH2OCH2CO]-Exatecan; linker I:1-II:N via Hexanoyl(6-succinimido-3yl))
- pIC50 [6]: 6.02
- pIC50 [7]: 6.00
- pIC50 [8]: 6.21
